Laboratory results as given in patent US10359433B2, “BAG3 as biochemical serum and tissue marker” (BIOUNIVERSA S.R.L., priority 2012, dated 2019).

What was measured:
J774 A.1 cells [1] = assay: FACS competition assay: FITC-rBAG3 binding to J774 A.1 cells with BAG3 peptides or F(ab′)2 fragments; assay type: cell-based, murine; details: 14 nM FITC-BAG3, 625 nM of BAG3 peptides
Method: (§1) We addressed the functional significance of BAG3 release by cardiomyocytes. […] Therefore we investigated whether BAG3 could interact with blood cells. […] BAG3 binding to macrophages was specifically impaired by competing BAG3 peptides or by BAG3-sequestering F(ab′)2 fragments from anti-BAG3 monoclonal antibodies (Table I). In particular J774 cells were incubated with 14 nM FITC-BAG3 protein and with 625 nM of BAG3 peptides (peptide 1, peptide 2, peptide 3, peptide 4 or scrambled peptide) or with 420 nM of F(ab′)2 fragments from anti-BAG3 monoclonal and polyclonal antibodies (mouse monoclonal AC1, AC2 and rabbit polyclonal TOS2). F(ab′)2 fragments from mouse IgG or F(ab′)2 fragments from rabbit IgG were used as a negative control.
Competition—J774 A.1 cells (2.5×105/100 μl) were incubated with 625 nM of BAG3 peptides (peptide 1, peptide 2, peptide 3, peptide 4 or scrambled peptide) or with 420 nM of F(ab′)2 fragments from anti-BAG3 monoclonal and polyclonal antibodies (mouse monoclonal AC1, AC2 and rabbit polyclonal TOS2) or F(ab′)2 fragments from mouse IgG or F(ab′)2 fragments from rabbit IgG in PBS containing 2% FBS+0.1% NaN3 for 30 min on ice. After incubation the cells were washing with PBS and then were incubated with of FITC-rBAG3 protein (14 nM), in PBS containing 2% FBS+0.1% NaN3 for 30 min at 4° C. in the dark. After washing with PBS, the cells were resuspended in PBS+2% FBS+0.1% NaN3 and analyzed by flow cytometer (BD Biosciences).

J774 A.1 cells [2] = assay: FACS analysis of FITC-rBAG3 binding to J774 A.1 macrophages; assay type: cell-based, murine
Method: FIG. 3B: BAG3 binds macrophages. J774 A1 macrophages (1×10^6 cells/ml) were incubated with different concentration of Fitc-BAG3 protein (7, 14 and 70 nm). FITC-BSA (70 nM) was used as a negative control (grey). Cells fluorescence was analyzed by flow cytometry.
as §1
rBAG3 binding—J774 A.1 cells were blocked with 2% FBS+0.1% NaN3 in PBS for 15 min on ice and incubated (2.5×105/100 μl) with different concentration of FITC-rBAG3 protein (7, 14 and 70 nm) or FITC-BSA (70 nM) in PBS containing 2% FBS+0.1% NaN3 for 30 min at 4° C. in the dark. After washing with PBS, the cells were resuspended in PBS+2% FBS+0.1% NaN3 and analyzed with a FACScan (BD Biosciences) flow cytometer.

HCMa cells = assay: Confocal direct fluorescence, rBAG3-FITC binding to cardiomyocytes; assay type: cell-based, human; details: FIG. 3A, result in words
Excerpt: FIG. 3A: Confocal microscopy analysis of direct fluorescence performed for detection of rBAG3-FITC binding to HCMa cells (a, b, c) and J774 A1 cells (d, e, f, g, h, i). BAG3 recombinant protein and purified BSA (albumin from bovine serum purchased from SIGMA) were conjugated to FITC using the FluoroTag FITC Conjugation Kit purchased from SIGMA following the manufacturer instructions. Equal amount of rBAG3-FITC (b, e) and BSA-FITC (h) proteins, calculated following the manufacturer instructions, were added in HCM and J774 A1 culture media with 0.1% NaN3 […] (a, d, g). Cells were analyzed by a Zeiss LSM confocal microscope. Merged images are shown in c, f and i.
We addressed the functional significance of BAG3 release by cardiomyocytes. […]
Cells were cultured on coverslips in six-well plates to 60-70% confluence and equal amount of rBAG3-FITC and BSA-FITC proteins were added in HCMa and J774 A1 culture media with 0.1% NaN3 for 1 h. […] Samples were analyzed using a confocal laser scanning microscope (Zeiss LSM confocal microscope, Germany). […] For production of figures, brightness and contrast of images were adjusted by taking care to leave a light cellular fluorescence background for visual appreciation of the lowest fluorescence intensity features and to help comparison among the different experimental groups. […]

J774 A1 macrophages [3] = assay: IL-6 release from J774 A1 macrophages (ELISA); assay type: cell-based, murine; details: J774 A1, FIG. 3C panel c
Method: FIG. 3C panel c—Analysis of IL-6 release from J774 A1 macrophages incubated with BAG3. J774 A1 cells at 80% confluency macrophages were incubated with control medium, BSA, LPS or recombinant BAG3 for 5 hours. BAG3 peptides (peptide 1, peptide 2, peptide 3, peptide 4 or scrambled peptide) 625 nM were added where indicated to verify their ability to block BAG3 activity. IL-6 production was measured in cell culture medium using an ELISA test. IL-6 concentration was evaluated by comparing the OD of the sample with that of a standard curve of recombinant IL-6. IL6 was measured in supernatant of J774 A.1 cells (5×10^4/in 96-well microplates) treated with LPS (10 ng/ml) or with rBAG3 (14 nM) or BSA (14 nM) for 10 or 20 hours in absence or presence of polymyxin B sulfate (5 μg/ml). After treatment 50 μL of cell culture medium were collected and analyzed in triplicate with a mouse IL6 Kit (eBioscience).

J774 A1 macrophages [4] = assay: Cox-2 and iNOS levels in J774 A1 macrophages incubated with BAG3 (western blot); assay type: cell-based, murine; details: BAG3-treated macrophages, 20 hours, FIG. 3C panel a
Method: FIG. 3C panel a—Analysis of Cox-2 and iNOS levels in J774 A1 macrophages incubated with BAG3. J774 A1 cells at 80% confluency were incubated with control medium, BSA, LPS or rBAG3, for 20 hours. Polymixin was added where indicated to verify that the effects of E. coli-derived rBAG3 were independent from the presence of contaminating endotoxin. Cox-2 and iNOS expression were analyzed in cell lysates by Western blotting. To explore functional consequences of BAG3 binding to macrophages, we tested the effect of recombinant BAG3 on the expression of inducible nitric oxide synthase (iNOS) and cyclooxygenase (Cox)-2 in the cells. As shown in FIG. 3C panel a the levels of those enzymes were enhanced in BAG3-treated macrophages. […] Soluble proteins were collected after a centrifugation at 10,000 g for 15 min and their amount was determined by Bradford assay (Bio-Rad, Hercules, Calif.). […] Immunoreactivity was detected by sequential incubation with horseradish peroxidase-conjugated secondary antibodies purchased from Pierce (Rockford, Ill.) and ECL detection reagents purchased from Amersham Life Sciences Inc. (Arlington Heights, Ill., USA).

J774 A1 macrophages [5] = assay: Nitrite release from J774 A1 macrophages (Griess reaction); assay type: cell-based, murine; details: J774 A1, 24 hours, FIG. 3C panel b
Method: FIG. 3C panel b—Analysis of nitrite release from J774 A1 macrophages incubated with BAG3. J774 A1 cells at 80% confluency were incubated with control medium, BSA, LPS or rBAG3 for 24 hours. 100 μl of supernatants from each sample were incubated with 100 μl of Griess reagent; the optical density at 550 nm (OD550) was measured with a Beckman DU62 spectrophotometer. Nitrite concentration was evaluated by comparing the OD550 of the sample with that of a standard curve of sodium nitrite. Nitrite content (NO2^−), a stable metabolite of NO released by cells in the culture supernatant, was measured in J774 A.1 cells (5×104/in 96-well microplates) treated with LPS (10 ng/ml) or with rBAG3 (7, 14 and 28 nM) or BSA (28 nM) for 24 hours in absence or presence of polymyxin B sulfate (Sigma-Aldrich, St. Louis, Mo., USA) 5 μg/ml. NO2^− amounts were measured by Griess reaction. Briefly, 100 μL of cell culture medium were mixed with 100 μL of Griess reagent—equal volumes of 1% (w:v) sulphanilamide in 5% (v:v) phosphoric acid and 0.1% (w:v) naphtylethylenediamine-HCl—and incubated at room temperature for 10 min, and then the absorbance was measured at 550 nm in a microplate reader Titertek (Dasit, Cornaredo, Milan, Italy). The amount of NO2- (as μM) in the samples was calculated from a sodium nitrite standard curve.

Row | Substance | Competiton assays % inhibition (J774 A.1 cells [1]) [%] | Competiton assays % of positive cells (±S.D.) (J774 A.1 cells [1]) | also measured
1 | DKGKKNAGNAEDPHT (listed as Homo sapiens) [Pep3, 13] | 47.2 | 5.86 (±0.43) % | 
2 | DRDPLPPGWEIKIDPQ (listed as Homo sapiens) [Pep1, 11] | 98.4 | 0.18 (±0.05) % | 
3 | FITC-BSA: purified albumin from bovine serum conjugated to FITC, negative control |  |  | FITC-BSA % of positive cells (±S.D.) (J774 A.1 cells [2]; J774 cells, flow cytometry, negative control): 4.04 (±0.06) %
4 | FITC-rBAG3: BAG3 recombinant protein conjugated to FITC |  |  | binding to macrophages of the cell line J774 (J774 A.1 cells [2]; FIG. 3B, result in words): bound; FITC-rBAG3 % of positive cells (±S.D.) (J774 A.1 cells [2]; J774 cells, flow cytometry): 15.7 (±0.45) %; binding to the cardiomyocyte surface (HCMa cells): did not apparently bind
5 | NPSSMTDTPGNPAAP (listed as Homo sapiens) [Pep4, 14] | 93.8 | 0.68 (±0.20) % | 
6 | SSPKSVATEERAAPS (listed as Homo sapiens) [Pep2, 12] | 89.1 | 1.21 (±0.63) % | 
7 | recombinant BAG3: E. coli-derived recombinant BAG3 protein; human BAG3 is SEQ ID NO:15 |  |  | release of interleukin (IL)-6 (J774 A1 macrophages [3]): induced the release; expression of inducible nitric oxide synthase (iNOS) and cyclooxygenase (Cox)-2 (J774 A1 macrophages [4]): enhanced; release of nitrite (J774 A1 macrophages [5]): induced the release
